The values that follow come from paper PMC6226112 (Clinical and Translational Science, 2018).

For data set [1] the following is noted: both, human, in vivo.
Data set [2] is described as follows: Trial 1 safety and tolerability. The note with it: for Number of AEs considered related to the drug(s): 73 drug-related of 78 AEs.
The nature of data set [3]: clinical. The note with it: both, human, in vivo.
For data set [4] the following is noted: human, in vivo.
A short description of data set [5]: clinical. The note with it: human, in vivo.
A short description of data set [6]: Trial 2 safety and tolerability.
The conditions of data set [7]: steady state; cited from earlier work.
The conditions of data set [8]: GZR alone 200 mg once daily, ref historical database, cited from earlier work.

Where two headings read alike, the source gives them in different places.

Regarding `COC(=O)N[C@H](C(=O)N1CCC[C@H]1c1nc(-c2ccc3c(c2)O[C@@H](c2ccccc2)n2c-3cc3cc(-c4c[nH]c([C@@H]5CCCN5C(=O)[C@@H](NC(=O)OC)C(C)C)n4)ccc32)c[nH]1)C(C)C` [EBR, elbasvir], in data set [1], the “GMRs for AUC0-∞, Cmax, and C24 (range over the three parameters)” value was 1.13–1.22. In addition, in data set [2], the “Tolerability of coadministration with BUP/NAL” value was “generally well tolerated” and the “Number of AEs considered related to the drug(s)” value amounted to 4. In “clinical [3]”, the AUC(0-inf) (usually the area under the concentration-time curve extrapolated to infinity) stood at 2.55 µM·h and the time to peak (Tmax) – broadly, the time at which the peak concentration occurs – amounted to 3.01 h. Besides, the total exposure AUC(0-inf) in “clinical [3]” (po, 50 mg) was 2.08 µM·h.

With `C=C[C@@H]1C[C@]1(NC(=O)[C@@H]1C[C@@H]2CN1C(=O)[C@H](C(C)(C)C)NC(=O)O[C@@H]1C[C@H]1CCCCCc1nc3ccc(OC)cc3nc1O2)C(=O)NS(=O)(=O)C1CC1` [GZR, grazoprevir], in data set [4], the “C24, GM” value worked out at 13.5 nM; the “GMRs for AUC0-24, Cmax, and C24 (range over the three parameters)” value was 0.80–0.97. For the same molecule, in the data set “clinical [5]”, the exposure AUC(0-t) (in general, the area under the concentration-time curve up to a stated or last time point) stood at 2.13 µM·h; the Cmax (as a rule, the maximum level reached in the sampled fluid or tissue) amounted to 473 nM; the Tmax came out at 4 h. In addition, the “Tolerability of coadministration with BUP/NAL” value in data set [6] was “generally well tolerated”. The “Exposure in HCV-infected people compared with healthy people” value in data set [7] is approximately 2 fold. In addition, the “C24, GM” value in data set [8] is listed as 13.9 nM. Moreover, in data set [8] (read-out: Cmax, GM), the highest concentration (Cmax) was 583 nM.

With `C=CCN1CC[C@]23c4c5ccc(O)c4O[C@H]2C(=O)CC[C@@]3(O)[C@H]1C5` [NAL, naloxone], in data set [4], the “Apparent terminal T½, GM” value was 5.20 h and the “Cmax/D, GM” value turned out to be 0.149 ng/mL/mg. Also, the time to peak (Tmax) in the data set “clinical [5]” is 1.24 h. Moreover, in the data set “clinical [3]”, the total exposure AUC(0-inf) is 0.416 ng·h/mL, the Cmax came to 0.139 ng/mL and the Tmax came out at 0.98 h. Moreover, in the data set “clinical [3]” (2 mg), the AUC(0-inf) is 0.47 ng·h/mL and the highest level (Cmax) was 0.165 ng/mL.

`O=C1CC[C@@]2(O)[C@H]3Cc4ccc(O)c5c4[C@@]2(CCN3CC2CC2)[C@H]1O5` [NTX, naltrexone]: in data set [2], the “Number of AEs considered related to the drug(s)” value is on record as “three”.
